For the test, the system named is M. tuberculosis Erdman strain. Nature of the test: highly lethal in vitro drug exposure of log-phase M. tuberculosis; killing and pre-rRNA/rRNA by RNAseq and ddPCR. The class given is cell-based. As to conditions: for pre-rRNA in M tuberculosis that survived exposure (FIG. 5, RNAseq reads): 48 h lethal exposure; for M. tuberculosis killed: 48 h of exposure, lethal dose, log phase culture; for 16S normalized counts, Transcripts per Million (TPM) / 23S normalized counts, Transcripts per Million (TPM) / ETS1 normalized counts, Transcripts per Million (TPM) / ITS1 normalized counts, Transcripts per Million (TPM) / ITS1/23S, Pre-RNA/23S (×10^4) / ETS1/23S, Pre-RNA/23S (×10^4): RNAseq; for ITS1/23S, Pre-RNA/23S (×10^4): control 466; for ETS1/23S, Pre-RNA/23S (×10^4): control 514; for effect on ETS1 and ITS1: relative to control.

[1] abbreviates: lethal in vitro exposure, Day 2.
[2] abbreviates: lethal in vitro exposure, Day 7.
Where [3] appears, read: lethal in vitro exposure, Day 5.

Where only a bound is given, the exact number is not on record here.

For the compound `COc1nc2ccc(Br)cc2cc1[C@@H](c1ccccc1)[C@@](O)(CCN(C)C)c1cccc2ccccc12` [Bedaquiline, bedaquiline], the “pre-rRNA in M tuberculosis that survived exposure (FIG. 5, RNAseq reads)” value (“pre-rRNA” for short) is recorded as “negligible pre-rRNA” and the M. tuberculosis killed is ~99.9%. Besides, under setting [1], the “16S normalized counts, Transcripts per Million (TPM)” value is 343,978 TPM; the “23S normalized counts, Transcripts per Million (TPM)” value was 654,924 TPM; the “ETS1 normalized counts, Transcripts per Million (TPM)” value is 548 TPM; the “ITS1 normalized counts, Transcripts per Million (TPM)” value was 551 TPM. Under setting [1], the “ITS1/23S, Pre-RNA/23S (×10^4)” value is on record as 8.4 ×10^4 and the “ETS1/23S, Pre-RNA/23S (×10^4)” value is 8.4 ×10^4. Also, under setting [2], the “16S normalized counts, Transcripts per Million (TPM)” value was 208,644 TPM; the “23S normalized counts, Transcripts per Million (TPM)” value is reported as 788,154 TPM; the “ETS1 normalized counts, Transcripts per Million (TPM)” value is 1,778 TPM; the “ITS1 normalized counts, Transcripts per Million (TPM)” value is 1,425 TPM. Further, under setting [2], the “ITS1/23S, Pre-RNA/23S (×10^4)” value is 18.1 ×10^4 and the “ETS1/23S, Pre-RNA/23S (×10^4)” value is 22.6 ×10^4. For the same compound, for the setting “lethal in vitro exposure”, the “decrease of ETS1/23S relative to control” value is on record as > 20 fold and the “decrease of ITS1/23S relative to control” value was > 20 fold.
Consider `NNC(=O)c1ccncc1` [Isoniazid, isoniazid], for which the “pre-rRNA” value is “abundant pre-rRNA” and the M. tuberculosis killed came to 99.99%. Moreover, under setting [1], the “16S normalized counts, Transcripts per Million (TPM)” value is 423,197 TPM; the “23S normalized counts, Transcripts per Million (TPM)” value is 556,210 TPM; the “ETS1 normalized counts, Transcripts per Million (TPM)” value is 12,092 TPM; the “ITS1 normalized counts, Transcripts per Million (TPM)” value is recorded as 8,502 TPM. For the same compound, under setting [1], the “ITS1/23S, Pre-RNA/23S (×10^4)” value is 153 ×10^4 and the “ETS1/23S, Pre-RNA/23S (×10^4)” value is given as 217 ×10^4. Moreover, under setting [2], the “16S normalized counts, Transcripts per Million (TPM)” value was 451,670 TPM; the “23S normalized counts, Transcripts per Million (TPM)” value is given as 519,579 TPM; the “ETS1 normalized counts, Transcripts per Million (TPM)” value is recorded as 16,987 TPM; the “ITS1 normalized counts, Transcripts per Million (TPM)” value is on record as 11,763 TPM. Besides, under setting [2], the “ITS1/23S, Pre-RNA/23S (×10^4)” value is 226 ×10^4 and the “ETS1/23S, Pre-RNA/23S (×10^4)” value is listed as 327 ×10^4. Moreover, where the note is “lethal in vitro exposure”, the “decrease of ETS1/23S” value is on record as ~50% and the “decrease of ITS1/23S” value is listed as ~50%.
Regarding `CO[C@H]1/C=C/O[C@@]2(C)Oc3c(C)c(O)c4c(O)c(c(/C=N/N5CCN(C)CC5)c(O)c4c3C2=O)NC(=O)/C(C)=C\C=C\[C@H](C)[C@H](O)[C@@H](C)[C@@H](O)[C@@H](C)[C@H](OC(C)=O)[C@@H]1C` [Rifampin, rifampin], the “pre-rRNA” value is on record as “negligible pre-rRNA” and the M. tuberculosis killed stood at 99.99%. Moreover, under setting [1], the “16S normalized counts, Transcripts per Million (TPM)” value is 375,111 TPM; the “23S normalized counts, Transcripts per Million (TPM)” value is listed as 624,759 TPM; the “ETS1 normalized counts, Transcripts per Million (TPM)” value came out at 58 TPM; the “ITS1 normalized counts, Transcripts per Million (TPM)” value came out at 72 TPM. Further, under setting [1], the “ITS1/23S, Pre-RNA/23S (×10^4)” value is listed as 1.15 ×10^4 and the “ETS1/23S, Pre-RNA/23S (×10^4)” value was 0.92 ×10^4. In addition, under setting [3], the “16S normalized counts, Transcripts per Million (TPM)” value is 306,538 TPM; the “23S normalized counts, Transcripts per Million (TPM)” value was 693,196 TPM; the “ETS1 normalized counts, Transcripts per Million (TPM)” value is on record as 30 TPM; the “ITS1 normalized counts, Transcripts per Million (TPM)” value stood at 235 TPM. Under setting [3], the “ITS1/23S, Pre-RNA/23S (×10^4)” value is given as 3.39 ×10^4 and the “ETS1/23S, Pre-RNA/23S (×10^4)” value is listed as 0.44 ×10^4. Moreover, under “lethal in vitro exposure”, the “decrease of ETS1/23S relative to control” value was > 100 fold; the “decrease of ITS1/23S relative to control” value is > 100 fold; the “effect on ETS1 and ITS1” value is “nearly complete abrogated ETS1 and ITS1”.
`[H]/N=C(/N)N[C@H]1[C@H](O)[C@@H](O)[C@H](O[C@@H]2O[C@@H](C)[C@](O)(C=O)[C@H]2O[C@@H]2O[C@@H](CO)[C@H](O)[C@@H](O)[C@@H]2NC)[C@@H](N/C(N)=N\[H])[C@@H]1O` [Streptomycin, streptomycin]: the “pre-rRNA” value is given as “abundant pre-rRNA” and the M. tuberculosis killed is 99.99%. Besides, under setting [1], the “16S normalized counts, Transcripts per Million (TPM)” value is 453,930 TPM; the “23S normalized counts, Transcripts per Million (TPM)” value is 430,311 TPM; the “ETS1 normalized counts, Transcripts per Million (TPM)” value is listed as 78,749 TPM; the “ITS1 normalized counts, Transcripts per Million (TPM)” value is 37,010 TPM. In addition, under setting [1], the “ITS1/23S, Pre-RNA/23S (×10^4)” value is on record as 860 ×10^4 and the “ETS1/23S, Pre-RNA/23S (×10^4)” value was 1,830 ×10^4. For the same compound, under setting [3], the “16S normalized counts, Transcripts per Million (TPM)” value was 406,987 TPM; the “23S normalized counts, Transcripts per Million (TPM)” value is 488,000 TPM; the “ETS1 normalized counts, Transcripts per Million (TPM)” value was 72,994 TPM; the “ITS1 normalized counts, Transcripts per Million (TPM)” value is recorded as 32,019 TPM. Also, under setting [3], the “ITS1/23S, Pre-RNA/23S (×10^4)” value is listed as 656 ×10^4 and the “ETS1/23S, Pre-RNA/23S (×10^4)” value is on record as 1,496 ×10^4. Besides, the “effect on ETS1 and ITS1” value (lethal in vitro exposure) was “increased ETS1 and ITS1”.

Source of the values: US11572588B2, “Methods of evaluating treatment efficacy and/or treatment duration in mycobacterial diseases” (priority 2017, dated 2023).
